What all share (assay type): in vivo
For one test, the system named is LLC cell tumors. The experiment in a line: Doxorubicin delivery from tumor blood vessels to tumor tissues after LPA administration. The note with it: LLC tumor-bearing mice, LPA 3 mg/kg i.p., doxorubicin 1.5 mg/kg i.v. 24 hours later, tumors harvested after 20 minutes. Here is the method: LLC cells were subcutaneously inoculated into C57BL/6 NCrSlc mice aged 8 weeks (females, SLC, Inc.) in the same manner as in Example 1. An LPA administration solution was prepared in the same manner as in Example 1. On day 11 post-inoculation of LLC cells, mice with a tumor volume of 100 to 120 mm^3 were selected. The mice were divided into two groups: control group and LPA group (n=3). LPA (3 mg/kg in 100 μL PBS) or PBS (100 μL) was administered intraperitoneally. At 24 hours after LPA or PBS administration, doxorubicin (doxorubicin hydrochloride, Nippon Kayaku Co., Ltd.) was administered to the tail vein of the mice at a dose of 1.5 mg/kg under anesthesia with pentobarbital. The doxorubicin was prepared as a solution by dissolving and diluting the doxorubicin hydrochloride in physiological saline (Otsuka Pharmaceutical Co., Ltd.) to a concentration of 1.5 mg/kg and homogenizing the solution with an ultrasonic cleaner for 1 minute before administration. Doxorubicin is an autofluorescent anticancer drug that can be detected at an excitation wavelength of 480 nm and a measurement wavelength of 575 nm. At 20 minutes after administration of doxorubicin, the tumors were harvested from the mice, and the tumor specimens were prepared in the same manner as in Example 1 except that the thickness of the sections was 20 μm. […]

Test [1] has as its system Mouse colon cancer colon 26 cells. The test can be described thus: Combined administration of LPA and 5-FU, tumor growth in colon 26 cell tumor-bearing mice. The note with it: colon 26 tumors in BALB/c mice; LPA 3 mg/kg i.p. once daily for seven days; 5-FU 100 mg/kg i.p. on days 7 and 14. Here is the method: (§1) LLC cells were subcutaneously inoculated into C57BL/6 NCrSlc mice aged 8 weeks in the same manner as in Example 1. An LPA administration solution was prepared in the same manner as in Example 1. The anticancer drug used was 5-FU (Kyowa Hakko Kirin Co., Ltd.). The 5-FU was prepared as a solution in physiological saline (Otsuka Pharmaceutical Co., Ltd.). On day 7 post-inoculation of LLC cells, mice with a tumor volume of 30 to 50 mm^3 were selected and subjected to the test. The mice were divided into four groups: control group, 5-FU group, LPA group and 5-FU/LPA group (n=3). LPA (3 mg/kg in 100 μL PBS) or 5-FU (100 mg/kg in 100 μL PBS) or PBS (100 μL) was administered intraperitoneally. To 5-FU/LPA group, both LPA and 5-FU were administered intraperitoneally. LPA and PBS were administered once daily for consecutive seven days. 5-FU was administered twice in total, once a week for two weeks (on days 7 and 14 post-inoculation). The tumor size was measured over time after start of administration. The tumor volume was calculated by the formula: volume=length×width×height×0.5. Mice at 2 weeks after start of administration were photographed with a digital camera under anesthesia with pentobarbital. The tumors were harvested and photographed with a digital camera.
Mouse colon cancer colon 26 cells were used. […]

In test [2] the test system is Mouse melanoma B16-BL6 cells. The test can be described thus: Combined administration of LPA and 5-FU, tumor growth in B16-BL6 cell tumor-bearing mice. The note with it: B16-BL6 tumors; LPA 3 mg/kg i.p. once daily for seven days; 5-FU 100 mg/kg i.p. on days 7 and 14. Here is the method:
as §1
Mouse melanoma B16-BL6 cells were used. […]

Take lysophosphatidic acid [LPA]: in the test on LLC cell tumors, the “delivery of doxorubicin from blood vessels to tumor” value is “delivery of doxorubicin from the blood vessels to tumors in the deep lobe was observed”. The “tumor growth (tumor volume)” value in test [1] was “some inhibitory effects on tumor growth as compared with the control, up to day 17 post-inoculation”; in test [2] it was “some inhibitory effects on tumor growth as compared with the control”.

The record behind these values is patent US20170112861A1, “DRUG DELIVERY ENHANCER COMPRISING SUBSTANCE FOR ACTIVATING LYSOPHOSPHOLIPID RECEPTORS” (Osaka University, priority 2014, published 2017).
